Among the test systems are EKVX; Malme-3M; NCI-H23; SNB-75; A549; UO-31; OVCAR-5; SK-OV-3; UACC-257; RPMI-8226; SF-539; A498; SK-MEL-5; K562; NCI/ADR-RES; MDA-MB-231; HCT-15; DU-145; MCF7.
Holding throughout (experiment): NCI-60 cell line screen, 48 h

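96-well plates; 48 h exposure; 5 concentrations. Endpoints by linear interpolation between flanking doses. Not reached: highest tested concentration assigned. GI50 = concentration required for 50% inhibition of growth.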 The source made the active and inactive calls. No stated cut-off is given here; in the data, active = GI50 up to about 1.1 µM and inactive = higher.

On to `O=C(O)C12C3C4C1C1C2C3C1(Br)C41OCCO1` (stereo not given), for which the GI50 with EKVX, in the assay with Malme-3M, in the assay on NCI-H23, with SNB-75, with A549 and with UO-31 was > 100 µM (inactive) in each case. The GI50 in the assay with OVCAR-5, in the assay on SK-OV-3, with UACC-257, in the assay on RPMI-8226, with SF-539 and in the assay with A498 was > 100 µM (inactive) each time. Moreover, the GI50 with SK-MEL-5 and with K562 was > 100 µM (inactive) each time.
Take `COc1cc(C(C)(C)C)c(OC(=O)/C=C/C(=O)O/C=C/[N+](=O)[O-])c(C(C)(C)C)c1`: the GI50 in the assay on NCI/ADR-RES was 23.4 µM (inactive); in the assay with EKVX it was 69 µM (inactive); with MDA-MB-231, 33.9 µM (inactive); in the assay with NCI-H23, 19.4 µM (inactive); with SNB-75 it was > 100 µM (inactive); with A549 it was 21.4 µM (inactive). Besides, the GI50 in the assay with UO-31 is 28.1 µM (inactive); with HCT-15, 17.8 µM; in the assay with OVCAR-5 it was > 100 µM (inactive); in the assay on SK-OV-3, > 100 µM (inactive); in the assay on UACC-257 it was 47.6 µM (inactive); in the assay with RPMI-8226 it was > 100 µM (inactive). For the same compound, the GI50 in the assay with DU-145 is 38.2 µM (inactive); in the assay with SF-539 it was 34.4 µM (inactive); with A498 it was 44.4 µM (inactive); in the assay on MCF7 it was 13.5 µM (inactive); in the assay with SK-MEL-5 it was 35.3 µM (inactive); with K562, > 100 µM (inactive).
Regarding `O=C1C=CC(=O)C2=C1[C@@H](O)C1CC=CC3C(=O)O[C@@H]2C31` (stereo not given in full), the GI50 with EKVX is > 59.6 µM (inactive); in the assay on Malme-3M it was 19.1 µM (inactive); with NCI-H23 it was 27 µM (inactive); in the assay on SNB-75, 24.9 µM (inactive); in the assay with A549 it was > 52.7 µM (inactive); in the assay on UO-31, 43.1 µM (inactive). The GI50 in the assay with HCT-15 was 19.2 µM; in the assay with OVCAR-5, 74.3 µM (inactive); with SK-OV-3 it was > 100 µM (inactive); in the assay with UACC-257 it was 21.8 µM (inactive); in the assay on RPMI-8226, 19.9 µM (inactive); in the assay with SF-539, > 43.9 µM (inactive). Besides, the GI50 in the assay with A498 was > 100 µM (inactive); in the assay on SK-MEL-5, 20.6 µM (inactive); with K562, 18.5 µM (inactive).
For `CCCCC(N)CSSCC(N)CCCC` (stereo not given), the GI50 with EKVX was 25.2 µM (inactive); in the assay with Malme-3M it was 18.1 µM (inactive); with NCI-H23, 24.8 µM (inactive); with SNB-75, 30.6 µM (inactive); in the assay on A549, 52 µM (inactive); in the assay with UO-31, 21.4 µM (inactive). In addition, the GI50 in the assay on HCT-15 is 26.2 µM; in the assay on OVCAR-5 it was 20.5 µM (inactive); with SK-OV-3, 57.1 µM (inactive); with UACC-257, 20.5 µM (inactive); with RPMI-8226 it was 25.1 µM (inactive); with SF-539, 23.7 µM (inactive). In addition, the GI50 in the assay on A498 was 25.8 µM (inactive); with SK-MEL-5, 22.9 µM (inactive); with K562 it was 19.4 µM (inactive).
Consider `CC(C)C(Nc1c2ccccc2[n+](C)c2ccccc12)C(=O)O` (stereo not given), for which the GI50 in the assay on EKVX, in the assay with Malme-3M, in the assay with NCI-H23, with SNB-75, in the assay on A549 and with UO-31 was > 100 µM (inactive) throughout. Moreover, the GI50 in the assay with HCT-15 was more than 100 µM; in the assay on OVCAR-5, > 100 µM (inactive); in the assay on SK-OV-3, > 100 µM (inactive); with UACC-257 it was > 100 µM (inactive); in the assay on RPMI-8226 it was > 100 µM (inactive); in the assay with SF-539 it was > 100 µM (inactive). Besides, the GI50 in the assay on A498, in the assay with SK-MEL-5 and in the assay with K562 was > 100 µM (inactive) in each case.
With `CN1CCN(C(=S)N(C(=O)c2ccc(Cl)cc2)c2ccccc2)CC1`, the GI50 was > 100 µM (inactive) in the assay on Malme-3M; > 100 µM (inactive) in the assay on MDA-MB-231; > 100 µM (inactive) in the assay on NCI-H23; 41.8 µM (inactive) with SNB-75; > 100 µM (inactive) in the assay on A549; > 100 µM (inactive) in the assay with UO-31. Further, the GI50 was more than 100 µM with HCT-15; > 100 µM (inactive) in the assay on OVCAR-5; > 100 µM (inactive) in the assay with UACC-257; > 100 µM (inactive) with RPMI-8226; > 100 µM (inactive) with DU-145; > 100 µM (inactive) in the assay on MCF7. The GI50 with SK-MEL-5 and in the assay on K562 was > 100 µM (inactive) throughout.
Consider `CC(=O)OC1CCC2OOC1O2` (stereo not given), for which the GI50 with EKVX, in the assay on Malme-3M, with NCI-H23, with SNB-75, in the assay on A549 and in the assay on UO-31 was > 100 µM (inactive) in each case. Also, the GI50 in the assay with HCT-15 was more than 100 µM; in the assay with OVCAR-5, > 100 µM (inactive); in the assay with SK-OV-3 it was > 100 µM (inactive); with UACC-257, > 100 µM (inactive); in the assay on RPMI-8226 it was > 100 µM (inactive); in the assay with SF-539, > 100 µM (inactive). Also, the GI50 with A498, with SK-MEL-5 and in the assay on K562 was > 100 µM (inactive) each time.
On to `Cc1cc(C)nc(NS(=O)(=O)c2ccc(Nc3nnc(/C=C/c4c(O)ccc5ccccc45)c(=O)n3N)cc2)n1`, for which the GI50 in the assay with NCI/ADR-RES was 20 µM (inactive); with EKVX, 38.4 µM (inactive); with Malme-3M, 36.6 µM (inactive); with NCI-H23, 19.1 µM (inactive); with SNB-75, 17.3 µM (inactive); in the assay on A549, 30.7 µM (inactive). Also, the GI50 with UO-31 was 26 µM (inactive); with HCT-15, 10.9 µM; in the assay on OVCAR-5, 39.3 µM (inactive); in the assay on SK-OV-3, 51.4 µM (inactive); in the assay with RPMI-8226, 30.1 µM (inactive); with DU-145, 36.4 µM (inactive). Moreover, the figures for the GI50 in the assay on MCF7 and with K562 were 17.7 µM (inactive) and 27.6 µM (inactive), respectively.
Regarding `COC(=O)[C@@]1(C)/C(=N/NS(=O)(=O)c2ccc(C)cc2)CCC[C@@H]1C`, the GI50 in the assay with EKVX, in the assay with Malme-3M, in the assay with NCI-H23, in the assay with SNB-75, in the assay on A549 and with UO-31 was > 100 µM (inactive) in each case. Further, the GI50 in the assay with HCT-15 is 16.3 µM; with OVCAR-5, > 100 µM (inactive); with SK-OV-3, > 100 µM (inactive); with UACC-257, > 100 µM (inactive); in the assay on RPMI-8226, 30.8 µM (inactive); in the assay with SF-539, 88.3 µM (inactive). The GI50 in the assay on A498 was > 100 µM (inactive); in the assay with SK-MEL-5 it was > 100 µM (inactive); in the assay with K562 it was 74.3 µM (inactive).
Take `CC(=O)c1ccccc1NC(=O)C(=O)C(C(=O)c1ccc2ccccc2c1)C1OC(=O)c2ccccc21` (stereo not given): the GI50 was 97.9 µM (inactive) in the assay with EKVX; 3.7 µM (inactive) with Malme-3M; 6.49 µM (inactive) in the assay on NCI-H23; 8.95 µM (inactive) in the assay with SNB-75; 19.3 µM (inactive) with A549; 13.3 µM (inactive) with UO-31. The GI50 in the assay with HCT-15 was 13.7 µM; in the assay with OVCAR-5, 22.2 µM (inactive); in the assay on SK-OV-3, 29.2 µM (inactive); in the assay on UACC-257 it was 13.8 µM (inactive); with RPMI-8226, 6.11 µM (inactive); in the assay with SF-539 it was 4.72 µM (inactive). Further, the GI50 with A498 is 15.2 µM (inactive); in the assay on SK-MEL-5, 11.4 µM (inactive); with K562, 9.04 µM (inactive).

The values are drawn from ChEMBL document CHEMBL1201862, “PubChem BioAssay data set” (2004).
